Assay [1] concerns the target Hedgehog acyltransferase (Hhat) (Homo sapiens, UniProt Q5VTY9, Y351A). The assay is described as follows: in vitro Shh peptide palmitoylation by purified Y351A Hhat. In kind it is biochemical.
Assay [2] concerns the target Hedgehog acyltransferase (Hhat) (Homo sapiens, UniProt Q5VTY9). The assay is described as follows: NBD-palmitoyl-CoA uptake into liposomes with purified Hhat. Type of assay: biochemical.

This is an account of results in article PMC6948154 (Cell reports, 2019).

Chain of Hedgehog acyltransferase (Hhat) (Homo sapiens, UniProt Q5VTY9, Y351A) (Q5VTY9 whole entry Y351A): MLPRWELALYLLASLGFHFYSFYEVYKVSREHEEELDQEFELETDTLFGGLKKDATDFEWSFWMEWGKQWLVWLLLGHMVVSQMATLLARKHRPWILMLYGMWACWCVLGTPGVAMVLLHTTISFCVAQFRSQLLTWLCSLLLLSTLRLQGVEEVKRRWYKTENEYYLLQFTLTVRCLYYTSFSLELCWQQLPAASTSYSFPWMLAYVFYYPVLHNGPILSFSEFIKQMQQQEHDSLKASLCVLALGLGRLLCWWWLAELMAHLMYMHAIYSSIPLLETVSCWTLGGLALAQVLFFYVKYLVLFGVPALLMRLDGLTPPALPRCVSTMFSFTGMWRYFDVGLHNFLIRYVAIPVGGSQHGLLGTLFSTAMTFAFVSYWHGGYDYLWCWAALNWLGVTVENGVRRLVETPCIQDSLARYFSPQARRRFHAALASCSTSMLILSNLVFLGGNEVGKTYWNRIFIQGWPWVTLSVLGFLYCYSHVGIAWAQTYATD
Chain of Hedgehog acyltransferase (Hhat) (Homo sapiens, UniProt Q5VTY9) (Q5VTY9 whole entry): as the sequence (Q5VTY9 whole entry Y351A) above, with A351Y counted along it

For `CC(C)(COP(=O)(O)OP(=O)(O)OC[C@H]1O[C@@H](n2cnc3c(N)ncnc32)[C@H](O)[C@@H]1OP(=O)(O)O)[C@@H](O)C(=O)NCCC(=O)NCCSC(=O)CCCCCCCCCCCCCCCI` [[125I] IodoPalmitoyl-CoA], the “in vitro Shh peptide palmitoylation by purified Y351A Hhat” value in assay [1] was “Y351A retained near-WT levels of Shh palmitoylation activity when assayed in vitro using detergent-solubilized membranes and as a purified enzyme”.

As usually defined, the IC50 is the concentration that inhibits the measured activity by half. A lower IC50 goes with greater potency. Compound TDI-3410 registered an IC50 in assay [2] of 2450 nM.
